Consider nine compounds from patent US20140005163A1 (NOVARTIS AG, priority 2010, published 2014).

One experiment deals with T1, mTOR (Homo sapiens, UniProt P42345).
T1 construct: purchased Invitrogen Corporation (Carlsbad/CA, USA) PV4753
Put plainly: Biochemical assay for m-TOR by TR-FRET. The following applies: 8 μM ATP, 400 nM GFP-4EBP1, 0.5 nM mTOR. In outline: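 TR-FRET read-out: Tb-labelled anti-p4EBP1 pThr46 antibody (0.5 nM), added in EDTA to stop the reaction, detects phosphorylated GFP-4EBP1 after 15 min. Kinase step used 0.5 nM mTOR, 400 nM substrate, 8 μM ATP, MnCl2-containing HEPES buffer pH 7.5, room temperature.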

Experiment [1] deals with PKB Ser473 phosphorylation in Rat1-myr-HA-p110 alpha cells. The experiment in a line: Reverse protein array assay, PKB Ser473 phosphorylation in Rat1-myr-p110 alpha cells. The format is cell-based. The following applies: 0.5 h, pAkt Ser473, 30 minutes compound incubation, read-out: p-PKB IC50. In outline: (§1)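 After at least 20 h of culture, the p110 isoform-transfected Rat1 lines receive compound in an 8-step dilution series, keeping DMSO at 0.2%, for 30 minutes. Cells are then lysed and lysates arrayed on chips for fluorescence detection of Ser473-phosphorylated PKB.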

Experiment [2] relates to PKB Ser473 phosphorylation in Rat1-myr-HA-p110 beta cells. Put plainly: Reverse protein array assay, PKB Ser473 phosphorylation in Rat1-myr-p110 beta cells. The format is cell-based. The following applies: 0.5 h, pAkt Ser473, 30 minutes incubation, read-out: p-PKB IC50. The essentials: as §1

Structures are written as SMILES.

T1 sequence (P42345 1360-2549 limits assumed): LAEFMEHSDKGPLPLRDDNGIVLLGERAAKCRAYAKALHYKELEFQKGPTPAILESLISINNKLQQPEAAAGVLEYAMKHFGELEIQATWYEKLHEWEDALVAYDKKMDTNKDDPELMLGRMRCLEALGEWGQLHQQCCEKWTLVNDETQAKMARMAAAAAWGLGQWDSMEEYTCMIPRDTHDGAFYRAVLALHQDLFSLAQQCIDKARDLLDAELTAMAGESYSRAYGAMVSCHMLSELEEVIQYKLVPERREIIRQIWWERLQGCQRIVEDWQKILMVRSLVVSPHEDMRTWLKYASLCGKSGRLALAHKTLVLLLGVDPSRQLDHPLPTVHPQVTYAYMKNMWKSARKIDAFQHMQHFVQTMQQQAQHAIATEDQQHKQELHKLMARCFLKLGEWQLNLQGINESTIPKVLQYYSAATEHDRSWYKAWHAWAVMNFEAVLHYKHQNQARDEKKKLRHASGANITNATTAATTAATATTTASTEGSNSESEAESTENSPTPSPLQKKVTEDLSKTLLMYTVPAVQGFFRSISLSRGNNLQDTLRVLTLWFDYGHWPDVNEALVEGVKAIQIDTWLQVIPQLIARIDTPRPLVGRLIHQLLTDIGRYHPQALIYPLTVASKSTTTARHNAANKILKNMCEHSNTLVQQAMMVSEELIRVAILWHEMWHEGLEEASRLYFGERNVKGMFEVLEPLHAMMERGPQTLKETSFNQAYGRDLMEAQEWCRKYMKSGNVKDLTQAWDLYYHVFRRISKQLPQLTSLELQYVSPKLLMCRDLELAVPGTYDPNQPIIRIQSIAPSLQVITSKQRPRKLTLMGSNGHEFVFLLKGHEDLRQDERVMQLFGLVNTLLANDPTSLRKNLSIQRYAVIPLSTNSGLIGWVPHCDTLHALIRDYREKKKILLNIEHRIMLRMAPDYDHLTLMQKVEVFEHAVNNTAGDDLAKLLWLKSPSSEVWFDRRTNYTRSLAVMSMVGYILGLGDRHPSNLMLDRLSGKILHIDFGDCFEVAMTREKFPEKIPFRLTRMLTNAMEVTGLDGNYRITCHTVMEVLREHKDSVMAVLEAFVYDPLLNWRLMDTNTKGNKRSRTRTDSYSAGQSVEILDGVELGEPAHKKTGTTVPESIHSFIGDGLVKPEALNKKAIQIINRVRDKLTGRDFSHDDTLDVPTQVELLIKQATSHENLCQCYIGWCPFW

On to `Cc1nn(C(C)C)cc1-n1c(=O)n(C)c2cnc3ccc(-c4cnc5c(c4)COC(=O)N5C)cc3c21` [Example 170, 1-(1-Isopropyl-3-methyl-1H-pyrazol-4-yl)-3-methyl-8-(1-methyl-2-oxo-1,4-dihydro-2H-pyrido[2,3-d][1,3]oxazin-6-yl)-1,3-dihydro-imidazo[4,5-c]quinolin-2-one], for which the figures for the IC50 (at mTOR; in experiment [1]; in experiment [2]) were 1820 nM, 268 nM and 370 nM, respectively.
Take `Cc1nn(C)cc1-n1c(=O)n(C)c2cnc3ccc(-c4cncc(N(C)C5CCC5)c4)cc3c21` [Example 174, 8-[5-(Cyclobutyl-methyl-amino)-pyridin-3-yl]-1-(1,3-dimethyl-1H-pyrazol-4-yl)-3-methyl-1,3-dihydro-imidazo[4,5-c]quinolin-2-one]: the IC50 worked out at 7 nM at mTOR, 9 nM in experiment [1] and 10 nM in experiment [2].
Regarding `Cc1cc(-n2c(=O)n(C)c3cnc4ccc(-c5cnc(C)c(O)c5)cc4c32)n(C)n1` [Example 185.2, 1-(2,5-Dimethyl-2H-pyrazol-3-yl)-8-(5-hydroxy-6-methyl-pyridin-3-yl)-3-methyl-1,3-dihydro-imidazo[4,5-c]quinolin-2-one], the IC50 on mTOR was 19 nM; in experiment [1], 38 nM; in experiment [2], 88 nM.
With `[2H]C([2H])([2H])OCc1ncc(-c2ccc3ncc4c(c3c2)n(-c2cn(C)nc2C)c(=O)n4C)cc1OCC` [Example 198, 1-(1,3-Dimethyl-1H-pyrazol-4-yl)-8-(5-ethoxy-6-trideuteromethoxymethyl-pyridin-3-yl)-3-methyl-1,3-dihydro-imidazo[4,5-c]quinolin-2-one], the IC50 worked out at 73 nM at mTOR, 28 nM in experiment [1] and 37 nM in experiment [2].
For `CCn1cc(-n2c(=O)n(C)c3cnc4ccc(-c5cncc(C(C)(C)C#N)c5)cc4c32)c(C)n1` [Example 220.2, 2-{5-[1-(1-Ethyl-3-methyl-1H-pyrazol-4-yl)-3-methyl-2-oxo-2,3-dihydro-1H-imidazo[4,5-c]quinolin-8-yl]-pyridin-3-yl}-2-methyl-propionitrile] the same measures were 32 nM, 19 nM and 32 nM.
With `CCNC(=O)c1cc(-c2ccc3ncc4c(c3c2)n(-c2cn(C(C)C)nc2C)c(=O)n4C)cnc1N` [Example 227, 2-Amino-N-ethyl-5-[1-(1-isopropyl-3-methyl-1H-pyrazol-4-yl)-3-methyl-2-oxo-2,3-dihydro-1H-imidazo[4,5-c]quinolin-8-yl]-nicotinamide], the results for the 50% inhibitory concentration (IC50) (at mTOR; in experiment [1]; in experiment [2]) were 161 nM, 136 nM and 220 nM, respectively.
Turning to `COc1ncc(-c2ccc3ncc4c(c3c2)n(-c2cc(C)nn2C)c(=O)n4C)c(OC)n1` [Example 234.4, 8-(2,4-Dimethoxy-pyrimidin-5-yl)-1-(2,5-dimethyl-2H-pyrazol-3-yl)-3-methyl-1,3-dihydro-imidazo[4,5-c]quinolin-2-one], the IC50 on mTOR was 187 nM; in experiment [1], 17 nM; in experiment [2] it was 59 nM.
For `CNc1ccc(-c2ccc3ncc4c(c3c2)n(-c2cn(C(C)C)nc2C)c(=S)n4C)cn1` [Example 241, 1-(1-isopropyl-3-methyl-1H-pyrazol-4-yl)-3-methyl-8-(6-(methylamino)pyridin-3-yl)-1H-imidazo[4,5-c]quinoline-2(3H)-thione], the IC50 at mTOR is 79 nM; in experiment [1] it was below 5 nM; in experiment [2], below 5 nM.
`CCn1cc(-n2c(=O)n(C)c3cnc4ccc(-c5ccc(OC)c(OC)c5)nc4c32)c(C)n1` [Example 254, 8-(3,4-Dimethoxy-phenyl)-1-(1-ethyl-3-methyl-1H-pyrazol-4-yl)-3-methyl-1,3-dihydro-1,3,5,9-tetraaza-cyclopenta[a]naphthalen-2-one]: the IC50 at mTOR worked out at 65 nM; in experiment [1], 30 nM; in experiment [2], 26 nM.
